target: PIK3CD (Human) (UniProt O00329); assay: Cell-Based Assay; conditions: u937
Sequence (O00329 whole entry, looked up): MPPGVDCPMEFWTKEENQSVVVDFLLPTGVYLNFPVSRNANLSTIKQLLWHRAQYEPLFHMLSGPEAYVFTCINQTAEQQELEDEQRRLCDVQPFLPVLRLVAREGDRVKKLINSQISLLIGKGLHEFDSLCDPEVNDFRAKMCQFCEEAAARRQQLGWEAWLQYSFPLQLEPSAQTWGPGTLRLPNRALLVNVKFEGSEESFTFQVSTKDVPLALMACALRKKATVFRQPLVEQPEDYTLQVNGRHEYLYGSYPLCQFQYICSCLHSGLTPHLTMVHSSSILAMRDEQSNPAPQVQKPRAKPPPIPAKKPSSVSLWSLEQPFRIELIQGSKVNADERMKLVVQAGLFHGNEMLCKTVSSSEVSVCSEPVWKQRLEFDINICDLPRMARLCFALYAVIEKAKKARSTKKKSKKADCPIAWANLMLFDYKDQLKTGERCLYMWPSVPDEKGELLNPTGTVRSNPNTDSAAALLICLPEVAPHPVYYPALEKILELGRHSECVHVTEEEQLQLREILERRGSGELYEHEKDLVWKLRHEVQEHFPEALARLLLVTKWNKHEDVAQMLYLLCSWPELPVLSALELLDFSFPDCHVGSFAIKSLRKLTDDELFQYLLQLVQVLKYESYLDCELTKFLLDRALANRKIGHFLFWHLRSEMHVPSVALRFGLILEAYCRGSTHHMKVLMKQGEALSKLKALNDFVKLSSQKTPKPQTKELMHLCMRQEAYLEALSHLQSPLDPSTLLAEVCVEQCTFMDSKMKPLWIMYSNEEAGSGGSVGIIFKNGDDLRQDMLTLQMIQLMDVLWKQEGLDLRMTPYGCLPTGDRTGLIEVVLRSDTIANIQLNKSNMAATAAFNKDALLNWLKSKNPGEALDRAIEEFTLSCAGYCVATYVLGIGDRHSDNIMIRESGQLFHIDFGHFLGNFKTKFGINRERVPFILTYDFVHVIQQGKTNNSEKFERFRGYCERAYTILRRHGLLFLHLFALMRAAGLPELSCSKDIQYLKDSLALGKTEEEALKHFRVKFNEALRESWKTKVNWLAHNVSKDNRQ

| Structure (SMILES) | IC50 |
| --- | --- |
| CC(=O)N1CCN(C(=O)CCCC#Cc2cccc3nc(Cn4nc(-c5ccc(O)cc5)c5c(N)ncnc54)n(Cc4ccccc4Cl)c(=O)c23)CC1 | < 10 nM |
| COc1cc(Cn2c(Cn3nc(-c4ccc(O)cc4)c4c(N)ncnc43)nc3cccc(C#CCCCC(=O)N4CCOCC4)c3c2=O)cc(C(F)(F)F)c1 | < 10 nM |
| Nc1ncnc2c1c(-c1cccc(O)c1)nn2Cc1nc2cccc(C#CCCCC(=O)N3CCOCC3)c2c(=O)n1Cc1ccccc1Cl | < 10 nM |
| C#Cc1cccc2nc(Cn3nc(-c4ccc(O)cc4)c4c(N)ncnc43)n(Cc3c(F)cccc3F)c(=O)c12 | < 10 nM |
| C#Cc1cccc2nc(Cn3nc(-c4cccc(O)c4)c4c(N)ncnc43)n(Cc3cccc(C(F)(F)F)c3)c(=O)c12 | < 10 nM |
| C#Cc1cccc2nc(Cn3nc(-c4ccc(O)cc4)c4c(N)ncnc43)n(Cc3cccc(C(F)(F)F)c3)c(=O)c12 | < 10 nM |
| C#Cc1cccc2nc(Cn3nc(-c4ccc(F)c(O)c4)c4c(N)ncnc43)n(Cc3ccccc3Cl)c(=O)c12 | < 10 nM |
| Nc1ncnc2c1c(-c1ccc(O)cc1)nn2Cc1nc2cccc(C#CCOc3ccccc3)c2c(=O)n1Cc1ccccc1Cl | < 10 nM |
| C#Cc1cccc2nc(Cn3nc(-c4ccc(O)cc4)c4c(N)ncnc43)n(Cc3cccc(OC)c3)c(=O)c12 | < 10 nM |
| Nc1ncnc2c1c(-c1ccc(O)cc1)nn2Cc1nc2cccc(C#CCOCc3ccccc3)c2c(=O)n1Cc1ccccc1Cl | < 10 nM |
| Nc1ncnc2c1c(-c1cccc(O)c1)nn2Cc1nc2cccc(C#CCCCC(=O)N3CCC(N4CCOCC4)CC3)c2c(=O)n1Cc1ccccc1Cl | < 10 nM |
| CN1CCN(C(=O)CCCC#Cc2cccc3nc(Cn4nc(-c5cccc(O)c5)c5c(N)ncnc54)n(Cc4ccccc4Cl)c(=O)c23)CC1 | < 10 nM |
| COCCN1CCN(C(=O)CCCC#Cc2cccc3nc(Cn4nc(-c5ccc(O)cc5)c5c(N)ncnc54)n(Cc4ccccc4Cl)c(=O)c23)CC1 | < 10 nM |
| C#Cc1cccc2nc(Cn3nc(-c4cccc(O)c4)c4c(N)ncnc43)n(Cc3cccc(S(C)(=O)=O)c3)c(=O)c12 | < 10 nM |
| C#Cc1cccc2nc(Cn3nc(-c4ccc(O)cc4)c4c(N)ncnc43)n(Cc3ccccc3Cl)c(=O)c12 | < 10 nM |
| Nc1ncnc2c1c(-c1cccc(O)c1)nn2Cc1nc2cccc(C#CCCCCC(=O)O)c2c(=O)n1Cc1ccccc1Cl | < 10 nM |
| CN(C)C1CCN(C(=O)CCCC#Cc2cccc3nc(Cn4nc(-c5ccc(O)cc5)c5c(N)ncnc54)n(Cc4ccccc4Cl)c(=O)c23)CC1 | < 10 nM |
| C#Cc1cccc2nc(Cn3nc(-c4ccc(O)cc4)c4c(N)ncnc43)n(Cc3ccc(OC)cc3)c(=O)c12 | < 10 nM |
| C#Cc1cccc2nc(Cn3nc(-c4ccc(O)cc4)c4c(N)ncnc43)n(Cc3cc(C)on3)c(=O)c12 | < 10 nM |
| CN1CCCN(C(=O)CCCC#Cc2cccc3nc(Cn4nc(-c5cccc(O)c5)c5c(N)ncnc54)n(Cc4ccccc4Cl)c(=O)c23)CC1 | 10 to 1000 nM |
| COCC#Cc1cccc2nc(Cn3nc(-c4ccc(O)cc4)c4c(N)ncnc43)n(Cc3ccccc3Cl)c(=O)c12 | < 10 nM |
| Nc1ncnc2c1c(-c1ccc(O)cc1)nn2Cc1nc2cccc(C#CCCCC(=O)N3CCOCC3)c2c(=O)n1Cc1cc2ccccc2s1 | < 10 nM |
| C#Cc1cccc2nc(Cn3nc(-c4cccc(O)c4)c4c(N)ncnc43)n(Cc3ccc(S(C)(=O)=O)cc3)c(=O)c12 | < 10 nM |
| CN(C)C1CCN(C(=O)CCCC#Cc2cccc3nc(Cn4nc(-c5ccc(O)cc5)c5c(N)ncnc54)n(Cc4ccccc4Cl)c(=O)c23)C1 (configuration not stated) | < 10 nM |
| C#Cc1cccc2nc(Cn3nc(-c4ccc(O)cc4)c4c(N)ncnc43)n(Cc3ccc(Cl)cc3)c(=O)c12 | < 10 nM |
| COCCOCCOCC#Cc1cccc2nc(Cn3nc(-c4cccc(O)c4)c4c(N)ncnc43)n(Cc3ccccc3F)c(=O)c12 | < 10 nM |

| Structure (SMILES) | IC50 |
| --- | --- |
| COCCN(CCOC)C(=O)CCCC#Cc1cccc2nc(Cn3nc(-c4ccc(O)cc4)c4c(N)ncnc43)n(Cc3ccccc3Cl)c(=O)c12 | < 10 nM |
| C#Cc1cccc2nc(Cn3nc(-c4ccc(O)cc4)c4c(N)ncnc43)n(Cc3cccc(Cl)c3)c(=O)c12 | < 10 nM |
| C#Cc1cccc2nc(Cn3nc(-c4ccc(O)cc4)c4c(N)ncnc43)n(Cc3ccc(Cl)cc3F)c(=O)c12 | < 10 nM |
| CC(C)NC(=O)CCCC#Cc1cccc2nc(Cn3nc(-c4cccc(O)c4)c4c(N)ncnc43)n(Cc3ccccc3Cl)c(=O)c12 | < 10 nM |
| COC(=O)c1cccc(Cn2c(Cn3nc(-c4cccc(O)c4)c4c(N)ncnc43)nc3cccc(C#CCCCC(=O)N4CCOCC4)c3c2=O)c1 | < 10 nM |
| C#Cc1cccc2nc(Cn3nc(-c4ccc(O)cc4)c4c(N)ncnc43)n(Cc3ccccc3C(F)(F)F)c(=O)c12 | < 10 nM |
| C#Cc1cccc2nc(Cn3nc(-c4ccc(O)cc4)c4c(N)ncnc43)n(Cc3ccc(Cl)c(Cl)c3)c(=O)c12 | < 10 nM |
| CN1CCN(CCN(C)C(=O)CCCC#Cc2cccc3nc(Cn4nc(-c5ccc(O)cc5)c5c(N)ncnc54)n(Cc4ccccc4Cl)c(=O)c23)CC1 | < 10 nM |
| C#Cc1cccc2nc(Cn3nc(-c4cccc(O)c4)c4c(N)ncnc43)n(Cc3cc(C)on3)c(=O)c12 | < 10 nM |
| Nc1ncnc2c1c(-c1ccc(O)cc1)nn2Cc1nc2cccc(C#CCCCNC3CCCC3)c2c(=O)n1Cc1ccccc1Cl | < 10 nM |
| COCC#Cc1cccc2nc(Cn3nc(-c4ccc(O)cc4)c4c(N)ncnc43)n(Cc3cccc(OC)c3)c(=O)c12 | < 10 nM |
| Nc1ncnc2c1c(-c1ccc(O)cc1)nn2Cc1nc2cccc(C#CCCCC(=O)N3CCOCC3)c2c(=O)n1Cc1ccccc1F | < 10 nM |
| Nc1ncnc2c1c(-c1ccc(O)cc1)nn2Cc1nc2cccc(C#CCC3CCCC3)c2c(=O)n1Cc1ccccc1Cl | < 10 nM |
| NC(=O)NCC#Cc1cccc2nc(Cn3nc(-c4ccc(O)cc4)c4c(N)ncnc43)n(Cc3ccccc3Cl)c(=O)c12 | < 10 nM |
| C#Cc1cccc2nc(Cn3nc(-c4ccc(O)cc4)c4c(N)ncnc43)n(Cc3cc(OC)ccc3F)c(=O)c12 | < 10 nM |
| N#Cc1cccc(Cn2c(Cn3nc(-c4cccc(O)c4)c4c(N)ncnc43)nc3cccc(C#CCOCCOCCO)c3c2=O)c1 | < 10 nM |
| Nc1ncnc2c1c(-c1ccc(O)cc1)nn2Cc1nc2cccc(C#CCCCO)c2c(=O)n1Cc1ccccc1Cl | < 10 nM |
| CN(C)C1CCN(C(=O)CCCC#Cc2cccc3nc(Cn4nc(-c5cccc(O)c5)c5c(N)ncnc54)n(Cc4ccccc4Cl)c(=O)c23)C1 (configuration not stated) | 10 to 1000 nM |
| C#Cc1cccc2nc(Cn3nc(-c4ccc(O)cc4)c4c(N)ncnc43)n(Cc3ccccc3)c(=O)c12 | < 10 nM |
| Nc1ncnc2c1c(-c1ccc(O)cc1)nn2Cc1nc2cccc(C#CCCCC(=O)NCCN3CCOCC3)c2c(=O)n1Cc1ccccc1Cl | < 10 nM |
| CN1CCCN(C(=O)CCCC#Cc2cccc3nc(Cn4nc(-c5ccc(O)cc5)c5c(N)ncnc54)n(Cc4ccccc4Cl)c(=O)c23)CC1 | < 10 nM |
| C#Cc1cccc2nc(Cn3nc(-c4cccc(O)c4)c4c(N)ncnc43)n(Cc3cccc(Cl)c3)c(=O)c12 | < 10 nM |
| C#Cc1cccc2nc(Cn3nc(-c4cccc(O)c4)c4c(N)ncnc43)n(Cc3ccc(Cl)cc3)c(=O)c12 | < 10 nM |
| CN1CCN(CCNC(=O)CCCC#Cc2cccc3nc(Cn4nc(-c5ccc(O)cc5)c5c(N)ncnc54)n(Cc4ccccc4Cl)c(=O)c23)CC1 | < 10 nM |
| Nc1ncnc2c1c(-c1cccc(O)c1)nn2Cc1nc2cccc(C#CCCCC(=O)Nc3ccncc3)c2c(=O)n1Cc1ccccc1Cl | 10 to 1000 nM |
| Nc1ncnc2c1c(-c1cccc(O)c1)nn2Cc1nc2cccc(C#CCOCCN3CCOCC3)c2c(=O)n1Cc1ccccc1Cl | < 10 nM |

Reference: the Kinase Knowledgebase extract (Sharma et al. 2016)
